# Test results from paper PMC3919815, “Anti-Tumor Effects of Novel 5-O-Acyl Plumbagins Based on the Inhibition of Mammalian DNA Replicative Polymerase Activity” (PLoS ONE, 2014).
# Columns and labels:
# Experiment in all cases: DNA polymerase activity inhibition
# Assay type in all cases: biochemical
# Cauliflower pol α = Cauliflower pol α (Brassica oleracea var. botrytis, UniProt A0A0D3D890)
# From the text: (§1) Pol α was purified from calf thymus by immunoaffinity column chromatography as described by Tamai et al.. Recombinant rat pol β was purified from Escherichia coli JMpβ5 as described by Date et al.. The human pol γ catalytic gene was cloned into pFastBac. Histidine-tagged enzyme was expressed using the BACTO-BAC HT Baculovirus Expression System according to the manufacturer's instructions (Life Technologies, Frederick, MD, USA) and purified using ProBound resin (Invitrogen Japan, Tokyo Japan). Human pols δ and ε were purified by nuclear fractionation of human peripheral blood cancer cells (Molt-4) using the second subunit of pol δ and ε-conjugated affinity column chromatography, respectively. A truncated form of human pol η (residues 1–511) tagged with His6 at its C-terminal was expressed in E. coli cells and purified as described by Kusumoto et al.. A recombinant mouse pol ι tagged with His6 at its C-terminal was expressed and purified by Ni–NTA column chromatography. A truncated form of pol κ (residues 1–560) with 6× His-tags attached at the C-terminus was overexpressed in E. coli and purified as described by Ohashi et al.. Recombinant human His-pol λ was overexpressed and purified according to a method described by Shimazaki et al.. Recombinant human His-pol μ was overexpressed in E. coli BL21 and purified using Glutathione Sepharose 4B (GE Healthcare Bio-Science Corp., Piscataway, NJ, USA) column chromatography according to the method for pol λ preparation by Shimazaki et al.. Pol α from a higher plant, cauliflower, was purified from the inflorescence structure according to the methods outlined by Sakaguchi et al.. Recombinant rice (Oryza sativa L. cv. Nipponbare) pol λ tagged with His6 at the C-terminus was expressed in E. coli and purified as described by Uchiyama et al.. Calf TdT, Taq pol, T4 pol, T7 RNA polymerase, and T4 polynucleotide kinase were purchased from Takara Bio Inc. (Kyoto, Japan). The Klenow fragment of pol I from E. coli was purchased from Worthington Biochemical Corp. (Freehold, NJ, USA). Bovine pancreas deoxyribonuclease I was obtained from Stratagene Cloning Systems (La Jolla, CA, USA).
# (§2) The reaction mixtures for calf pol α, rat pol β, plant pol α, and prokaryotic pols have been described previously, [35]; those for pol γ as well as pols δ and ε were previously described by Umeda et al. and Ogawa et al., respectively. Those for pols η, ι, and κ were the same as for pol α, and those for pols λ and μ were the same as for pol β. For the pol reactions, poly(dA)/oligo(dT)18 (A/T, 2/1) and dTTP were used as the DNA template-primer substrate and nucleotide (dNTP; 2′-deoxynucleoside-5′-triphosphate) substrate, respectively. For the TdT reactions, oligo(dT)18 (3′-OH) and dTTP were used as the DNA primer substrate and nucleotide substrate, respectively.
# (§3) The chemically synthesized 5-O-acyl plumbagins (2a–j) were dissolved in distilled dimethyl sulfoxide (DMSO) to various concentrations and sonicated for 30 s. Subsequently, 4 µL aliquots were mixed with 16 µL of each enzyme (0.05 units) in 50 mM Tris-HCl at pH 7.5, containing 1 mM dithiothreitol, 50% glycerol (by vol), and 0.1 mM ethylenediaminetetraacetic acid and held at 0°C for 10 min. These inhibitor-enzyme mixtures in 8 µL volumes were next added to 16 µL of enzyme standard reaction mixture and incubated at 37°C for 60 min, except for Taq pol, which was incubated at 74°C for 60 min. Activity without inhibitor was considered 100%, and the relative activity was determined for each inhibitor concentration. One unit of pol activity was defined as the amount of each enzyme that catalyzed the incorporation of 1 nmol dTTP into synthetic DNA template primers in 60 min, at 37°C, and under standard reaction conditions, [35].
# Human pol ε = target: T1, Human pol ε (Homo sapiens, UniProt Q07864); conditions: 0.05 units enzyme; mean ± SD (n = 3)
# T1 construct: purified by nuclear fractionation of human peripheral blood cancer cells (Molt-4); endogenous in cells; host or cells: Molt-4
# From the text: as §1, §2, §3
# Human pol λ = target: T2, Human pol λ (Homo sapiens, UniProt Q9UGP5); conditions: 0.05 units enzyme; mean ± SD (n = 3)
# T2 construct: His tag; made in house
# T2 sequence (Q9UGP5 1-575): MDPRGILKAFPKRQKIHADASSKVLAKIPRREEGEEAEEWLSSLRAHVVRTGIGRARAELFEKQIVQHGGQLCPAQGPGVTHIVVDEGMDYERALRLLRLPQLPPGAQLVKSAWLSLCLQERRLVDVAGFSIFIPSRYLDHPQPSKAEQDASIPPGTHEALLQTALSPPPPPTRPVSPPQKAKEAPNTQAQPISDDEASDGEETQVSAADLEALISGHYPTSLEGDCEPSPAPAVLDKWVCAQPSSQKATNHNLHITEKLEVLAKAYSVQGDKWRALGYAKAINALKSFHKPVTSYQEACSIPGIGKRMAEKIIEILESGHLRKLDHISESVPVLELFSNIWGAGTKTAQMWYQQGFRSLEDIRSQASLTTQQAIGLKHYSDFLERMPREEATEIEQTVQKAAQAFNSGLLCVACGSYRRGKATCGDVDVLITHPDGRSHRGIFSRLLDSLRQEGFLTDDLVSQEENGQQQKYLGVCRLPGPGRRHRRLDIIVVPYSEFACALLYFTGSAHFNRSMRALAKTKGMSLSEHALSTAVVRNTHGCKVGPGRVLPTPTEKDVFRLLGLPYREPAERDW
# From the text: as §1, §2, §3
# Human pol μ = target: T3, Human pol μ (Homo sapiens, UniProt Q9NP87); conditions: 0.05 units enzyme; mean ± SD (n = 3)
# T3 construct: His tag; made in house; host or cells: E. coli BL21
# From the text: as §1, §2, §3
# Mouse pol ι = target: T4, Mouse pol ι (Mus musculus, UniProt Q6R3M4); conditions: 0.05 units enzyme; mean ± SD (n = 3)
# T4 construct: His6 (C); made in house
# From the text: as §1, §2, §3
# T4 pol = target: T5, T4 pol (Enterobacteria phage T4, UniProt P04415)
# T5 construct: purchased Takara Bio Inc. (Kyoto, Japan)
# From the text: as §1, §2, §3
# T5 sequence (P04415 whole entry): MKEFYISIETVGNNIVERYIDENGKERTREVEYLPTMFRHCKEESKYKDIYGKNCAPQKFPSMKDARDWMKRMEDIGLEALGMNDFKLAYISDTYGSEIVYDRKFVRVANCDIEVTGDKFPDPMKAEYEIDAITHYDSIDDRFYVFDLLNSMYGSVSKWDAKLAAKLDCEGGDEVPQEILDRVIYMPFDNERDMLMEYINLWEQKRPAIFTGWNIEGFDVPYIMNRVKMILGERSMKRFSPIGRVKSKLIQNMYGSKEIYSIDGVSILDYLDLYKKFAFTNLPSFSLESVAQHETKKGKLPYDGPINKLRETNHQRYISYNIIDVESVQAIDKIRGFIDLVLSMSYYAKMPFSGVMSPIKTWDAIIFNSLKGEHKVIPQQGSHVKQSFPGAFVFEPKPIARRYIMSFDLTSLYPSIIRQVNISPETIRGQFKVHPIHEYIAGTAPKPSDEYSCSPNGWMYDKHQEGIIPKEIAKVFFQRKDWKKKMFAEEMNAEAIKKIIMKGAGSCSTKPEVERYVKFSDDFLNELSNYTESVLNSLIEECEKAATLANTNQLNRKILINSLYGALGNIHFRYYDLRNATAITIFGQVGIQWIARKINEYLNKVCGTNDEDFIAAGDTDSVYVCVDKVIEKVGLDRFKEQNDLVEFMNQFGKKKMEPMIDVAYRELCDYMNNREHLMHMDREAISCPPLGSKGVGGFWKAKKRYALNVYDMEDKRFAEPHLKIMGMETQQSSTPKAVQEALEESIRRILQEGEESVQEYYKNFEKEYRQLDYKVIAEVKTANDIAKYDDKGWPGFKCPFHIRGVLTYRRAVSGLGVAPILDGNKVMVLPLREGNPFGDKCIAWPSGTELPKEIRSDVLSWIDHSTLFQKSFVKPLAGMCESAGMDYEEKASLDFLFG
# T3 sequence (Q9NP87 whole entry): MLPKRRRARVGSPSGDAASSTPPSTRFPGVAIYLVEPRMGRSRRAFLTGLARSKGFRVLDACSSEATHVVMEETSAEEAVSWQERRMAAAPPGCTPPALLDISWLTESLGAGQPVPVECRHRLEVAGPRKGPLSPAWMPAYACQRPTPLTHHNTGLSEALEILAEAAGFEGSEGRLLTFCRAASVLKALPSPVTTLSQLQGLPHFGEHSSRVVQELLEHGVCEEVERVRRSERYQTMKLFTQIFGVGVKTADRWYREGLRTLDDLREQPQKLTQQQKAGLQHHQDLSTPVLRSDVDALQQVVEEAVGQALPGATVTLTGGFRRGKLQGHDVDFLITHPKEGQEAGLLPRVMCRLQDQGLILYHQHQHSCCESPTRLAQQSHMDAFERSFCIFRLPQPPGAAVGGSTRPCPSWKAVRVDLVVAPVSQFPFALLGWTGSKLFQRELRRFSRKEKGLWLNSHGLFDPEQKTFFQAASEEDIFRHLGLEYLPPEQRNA
# T1 sequence (Q07864 whole entry): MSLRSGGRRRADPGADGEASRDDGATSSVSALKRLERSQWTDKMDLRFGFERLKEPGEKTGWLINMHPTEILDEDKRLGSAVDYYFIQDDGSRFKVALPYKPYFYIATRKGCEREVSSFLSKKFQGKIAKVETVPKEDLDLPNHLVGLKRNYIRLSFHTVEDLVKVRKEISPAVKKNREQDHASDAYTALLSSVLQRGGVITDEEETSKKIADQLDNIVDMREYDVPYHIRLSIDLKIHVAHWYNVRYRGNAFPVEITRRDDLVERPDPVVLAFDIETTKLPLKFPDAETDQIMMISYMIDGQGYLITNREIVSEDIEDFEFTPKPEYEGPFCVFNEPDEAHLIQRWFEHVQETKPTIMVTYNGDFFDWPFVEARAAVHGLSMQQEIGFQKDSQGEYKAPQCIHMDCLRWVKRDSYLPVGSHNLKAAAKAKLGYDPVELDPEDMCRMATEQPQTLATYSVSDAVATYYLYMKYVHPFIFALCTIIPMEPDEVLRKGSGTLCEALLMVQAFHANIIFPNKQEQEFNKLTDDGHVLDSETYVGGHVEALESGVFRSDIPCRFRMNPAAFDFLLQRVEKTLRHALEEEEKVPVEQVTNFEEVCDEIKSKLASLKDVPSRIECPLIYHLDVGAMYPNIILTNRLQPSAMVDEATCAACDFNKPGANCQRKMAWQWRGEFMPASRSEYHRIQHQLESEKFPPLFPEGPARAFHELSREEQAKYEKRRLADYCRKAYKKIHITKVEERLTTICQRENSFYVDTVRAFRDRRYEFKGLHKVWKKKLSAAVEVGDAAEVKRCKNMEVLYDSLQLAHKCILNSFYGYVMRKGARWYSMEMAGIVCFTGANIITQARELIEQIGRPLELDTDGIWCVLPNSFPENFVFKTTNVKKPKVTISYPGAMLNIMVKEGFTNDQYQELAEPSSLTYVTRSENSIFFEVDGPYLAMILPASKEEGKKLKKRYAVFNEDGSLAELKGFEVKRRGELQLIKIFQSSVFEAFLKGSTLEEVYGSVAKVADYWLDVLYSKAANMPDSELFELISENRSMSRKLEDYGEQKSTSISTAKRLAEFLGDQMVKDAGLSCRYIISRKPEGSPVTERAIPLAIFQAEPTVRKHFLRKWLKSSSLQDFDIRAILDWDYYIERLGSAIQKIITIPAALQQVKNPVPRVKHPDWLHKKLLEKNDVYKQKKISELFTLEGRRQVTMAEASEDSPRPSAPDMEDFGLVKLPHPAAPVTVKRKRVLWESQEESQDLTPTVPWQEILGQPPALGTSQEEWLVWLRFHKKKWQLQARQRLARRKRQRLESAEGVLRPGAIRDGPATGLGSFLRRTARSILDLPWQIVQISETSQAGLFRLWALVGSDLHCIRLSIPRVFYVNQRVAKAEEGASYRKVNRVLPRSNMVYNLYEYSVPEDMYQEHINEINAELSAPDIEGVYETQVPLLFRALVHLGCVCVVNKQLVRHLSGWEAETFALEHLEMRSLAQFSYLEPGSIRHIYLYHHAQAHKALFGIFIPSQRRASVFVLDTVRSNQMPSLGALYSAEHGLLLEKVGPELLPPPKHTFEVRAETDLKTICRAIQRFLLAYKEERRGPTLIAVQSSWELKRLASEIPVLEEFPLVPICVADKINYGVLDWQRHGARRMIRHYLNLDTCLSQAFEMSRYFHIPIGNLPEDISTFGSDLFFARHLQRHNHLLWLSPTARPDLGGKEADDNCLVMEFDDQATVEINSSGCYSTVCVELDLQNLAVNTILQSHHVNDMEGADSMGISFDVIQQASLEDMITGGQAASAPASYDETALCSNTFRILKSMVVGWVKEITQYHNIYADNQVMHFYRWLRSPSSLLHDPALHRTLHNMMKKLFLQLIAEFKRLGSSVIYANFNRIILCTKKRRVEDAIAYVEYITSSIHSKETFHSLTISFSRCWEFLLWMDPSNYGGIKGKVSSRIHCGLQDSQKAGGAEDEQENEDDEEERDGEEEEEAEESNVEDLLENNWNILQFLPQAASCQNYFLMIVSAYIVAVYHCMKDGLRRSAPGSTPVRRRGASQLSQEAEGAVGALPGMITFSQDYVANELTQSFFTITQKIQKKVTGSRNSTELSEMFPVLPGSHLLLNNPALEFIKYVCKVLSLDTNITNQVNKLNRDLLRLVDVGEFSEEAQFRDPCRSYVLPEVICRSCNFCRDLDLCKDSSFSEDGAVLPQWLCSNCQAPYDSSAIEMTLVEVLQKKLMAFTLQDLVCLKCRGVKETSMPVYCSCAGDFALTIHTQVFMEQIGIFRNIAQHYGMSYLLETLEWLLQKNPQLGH
smiles,measurement,setting,value
"CCCCCCCC/C=C\CCCCCCCC(=O)Oc1cccc2c1C(=O)C=C(C)C2=O [2f, 5-O-oleoyl-2-methyl-1,4-naphthoquinone]",effect on enzyme activity (in words),Cauliflower pol α,had no effect
same,IC50,Human pol ε,4.9 ± 0.4 µM
same,IC50,Human pol λ,9.2 ± 0.43 µM
same,IC50,Human pol μ,9.5 ± 0.48 µM
same,IC50,Mouse pol ι,8.2 ± 0.43 µM
same,effect on enzyme activity (in words),T4 pol,had no effect
same,IC50,T4 pol; 0.05 units enzyme,> 100 µM
